Measured values reported in US20240083861A1, “HSD17B13 INHIBITORS AND USES THEREOF” (FL2022-001, Inc., priority 2020, published 2024).

Biological target: T1, Recombinant human HSD17B13 enzyme (Homo sapiens, UniProt Q7Z5P4)
T1 sequence (Q7Z5P4 20-300): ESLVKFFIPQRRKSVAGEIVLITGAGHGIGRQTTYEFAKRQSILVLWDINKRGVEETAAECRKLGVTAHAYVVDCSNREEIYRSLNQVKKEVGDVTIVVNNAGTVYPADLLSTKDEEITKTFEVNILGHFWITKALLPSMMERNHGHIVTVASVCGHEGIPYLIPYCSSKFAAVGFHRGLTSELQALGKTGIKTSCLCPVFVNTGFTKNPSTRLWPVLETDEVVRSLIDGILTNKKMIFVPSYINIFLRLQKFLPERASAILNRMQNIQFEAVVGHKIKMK
Test: HSD17b13 NAD(P)H-Glo biochemical assay
Details: 50 uM estradiol, 1 mM NAD+, NAD(P)H-Glo luminescence; read-out: HSD17β13 IC50
Summary of the method: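 Recombinant human HSD17B13 in 20 mM Tris pH7.4 with 0.002% Tween-20 and 0.02% BSA was preincubated with inhibitor for 20 minutes at RT. The reaction ran 3 hours at 37° C with 50 uM estradiol and 1 mM NAD+ (final). NADH formed was detected by NAD(P)H-Glo luminescence after 1 hour at RT.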

Compound	IC50
Cn1nc(-c2cc(C(F)(F)F)c(F)c(O)c2F)c2cnc(N3CC(=O)NCC34CC4)cc21 [Compound 9.114, 4-(3-(2,4-Difluoro-3-hydroxy-5-(trifluoromethyl)phenyl)-1-methyl-1H-pyrazolo[4,3-c]pyridin-6-yl)-4,7-diazaspiro[2.5]octan-6-one]	< 100 nM
Cn1nc(-c2cc(C(F)(F)F)c(F)c(O)c2F)c2nnc(N3CCOCC34CC4)cc21 [Compound 9.138, 2,6-Difluoro-3-(1-methyl-6-(7-oxa-4-azaspiro[2.5]octan-4-yl)-1H-pyrazolo[4,3-c]pyridazin-3-yl)-5-(trifluoromethyl)phenol]	< 100 nM
COC(=O)N1CCN(c2ncc3c(-c4cc(C(F)(F)F)c(F)c(O)c4F)nn(C)c3n2)CC12CCC2 [Compound 20.03, Methyl 8-(3-(2,4-difluoro-3-hydroxy-5-(trifluoromethyl)phenyl)-1-methyl-1H-pyrazolo[3,4-d]pyrimidin-6-yl)-5,8-diazaspiro[3.5]nonane-5-carboxylate]	< 100 nM
COCC1CN(c2cc3c(cn2)c(-c2cc(C(F)(F)F)c(F)c(O)c2F)nn3C)CCO1 (stereo not shown) [Compound 9.77, 2,6-Difluoro-3-(6-(2-(methoxymethyl)morpholino)-1-methyl-1H-pyrazolo[4,3-c]pyridin-3-yl)-5-(trifluoromethyl)phenol]	< 100 nM
Cn1nc(-c2cc(C(F)(F)F)c(F)c(O)c2F)c2cnc(N3CCCOCC34CC4)cc21 [Compound 9.69, 2,6-Difluoro-3-(1-methyl-6-(8-oxa-4-azaspiro[2.6]nonan-4-yl)-1H-pyrazolo[4,3-c]pyridin-3-yl)-5-(trifluoromethyl)phenol]	< 100 nM
Cn1nc(-c2cc(C(F)(F)F)c(F)c(O)c2F)c2cnc(N3CC4(CC4)NCC3=O)cc21 [Compound 9.115, 7-(3-(2,4-Difluoro-3-hydroxy-5-(trifluoromethyl)phenyl)-1-methyl-1H-pyrazolo[4,3-c]pyridin-6-yl)-4,7-diazaspiro[2.5]octan-6-one]	100 to 1000 nM
CN1CCN(c2cc3c(cn2)c(-c2cc(C(F)(F)F)c(F)c(O)c2F)nn3C)C2(CCC2)C1 [Compound 9.96, 2,6-Difluoro-3-(1-methyl-6-(8-methyl-5,8-diazaspiro[3.5]nonan-5-yl)-1H-pyrazolo[4,3-c]pyridin-3-yl)-5-(trifluoromethyl)phenol]	< 100 nM
Cn1nc(-c2cc(C(F)(F)F)c(F)c(O)c2F)c2ccc(N3CCOCC34CC4)cc21 [Compound 9.19, 2,6-Difluoro-3-(1-methyl-6-(7-oxa-4-azaspiro[2.5]octan-4-yl)-1H-indazol-3-yl)-5-(trifluoromethyl)phenol]	< 100 nM
Cn1nc(-c2cc(C(F)(F)F)c(F)c(O)c2F)c2cnc(N3CCO[C@H](c4ccccc4)C3)nc21 [Compound 18.87, (R)-2,6-Difluoro-3-(1-methyl-6-(2-phenylmorpholino)-1H-pyrazolo[3,4-d]pyrimidin-3-y1)-5-(trifluoromethyl)phenol]	< 100 nM
Cn1nc(-c2cc(C(F)(F)F)c(F)c(O)c2F)c2cnc(N3CCN(S(C)(=O)=O)C4(CCCCC4)C3)nc21 [Compound 18.84, 2,6-Difluoro-3-(1-methyl-6-(1-(methylsulfony1)-1,4-diazaspiro[5.5]undecan-4-yl)-1H-pyrazolo[3,4-d]pyrimidin-3-y1)-5-(trifluoromethyl)phenol]	< 100 nM
Cn1cc(C2CN(c3ncc4c(-c5cc(C(F)(F)F)c(F)c(O)c5F)nn(C)c4n3)CCO2)cn1 (stereo not shown) [Compound 18.58, 2,6-Difluoro-3-(1-methyl-6-(2-(1-methyl-1H-pyrazol-4-yl)morpholino)-1H-pyrazolo[3,4-d]pyrimidin-3-y1)-5-(trifluoromethyl)phenol]	< 100 nM
CN1CCN(c2cc3c(cn2)c(-c2cc(C(F)(F)F)c(F)c(O)c2F)nn3C)C2(CC2)C1=O [Compound 9.112, 4-(3-(2,4-Difluoro-3-hydroxy-5-(trifluoromethyl)phenyl)-1-methyl-1H-pyrazolo[4,3-c]pyridin-6-yl)-7-methyl-4,7-diazaspiro [2.5]octan-8-one]	< 100 nM
Cn1nc(-c2cc(C(F)(F)F)c(F)c(O)c2F)c2cnc(N3CCN(S(C)(=O)=O)C4(CCC4)C3)nc21 [Compound 18.63, 2,6-Difluoro-3-(1-methyl-6-(5-(methylsulfony1)-5,8-diazaspiro[3.5]nonan-8-yl)-1H-pyrazolo[3,4-d]pyrimidin-3-y1)-5-(trifluoromethyl)phenol]	< 100 nM
CS(=O)(=O)N1CCN(c2ccc3c(-c4cc(O)c(F)c(C(F)(F)F)c4)n[nH]c3n2)CC1 [Compound 10.03, 2-Fluoro-5-(6-(4-(methylsulfonyl)piperazin-1-yl)-1H-pyrazolo[3,4-b]pyridin-3-yl)-3-(trifluoromethyl)phenol]	100 to 1000 nM

The next lines start with the values.

IC50	Compound
< 100 nM	Cn1nc(-c2cc(C(F)(F)F)c(F)c(O)c2F)c2cnc(NC3CCOCC3)cc21 [Compound 9.94, 2,6-Difluoro-3-(1-methyl-6-((tetrahydro-2H-pyran-4-yl)amino)-1H-pyrazolo[4,3-c]pyridin-3-yl)-5-(trifluoromethyl)phenol]
< 100 nM	Cn1nc(-c2cc(C(F)(F)F)c(F)c(O)c2F)c2cnc(N3CCOC4(CCC4)C3)nc21 [Compound 18, 2,6-Difluoro-3-(1-methyl-6-(5-oxa-8-azaspiro[3.5]nonan-8-yl)-1H-pyrazolo[3,4-d]pyrimidin-3-yl)-5-(trifluoromethyl)phenol]
< 100 nM	Cn1nc(-c2cc(C(F)(F)F)c(F)c(O)c2F)c2cnc(N3CCOCC3C3CCOCC3)nc21 (stereo not shown) [Compound 18.42, 2,6-Difluoro-3-(1-methyl-6-(3-(tetrahydro-2H-pyran-4-yl)morpholino)-1H-pyrazolo[3,4-d]pyrimidin-3-y1)-5-(trifluoromethyl)phenol]
< 100 nM	CN(c1cc2c(cn1)c(-c1cc(C(F)(F)F)c(F)c(O)c1F)nn2C)C1CCOCC1 [Compound 9.17, 2,6-Difluoro-3-(1-methyl-6-(methyl(tetrahydro-2H-pyran-4-yl)amino)-1H-pyrazolo[4,3-c]pyridin-3-yl)-5-(trifluoromethyl)phenol]
< 100 nM	COC1(C)CCN(c2ncc3c(-c4cc(C(F)(F)F)c(F)c(O)c4F)nn(C)c3n2)CC1 [Compound 18.61, 2,6-Difluoro-3-(6-(4-methoxy-4-methylpiperidin-1-yl)-1-methyl-1H-pyrazolo[3,4-d]pyrimidin-3-yl)-5-(trifluoromethyl)phenol]
100 to 1000 nM	CN1CCC2(CC1)CN(c1ncc3c(-c4cc(C(F)(F)F)c(F)c(O)c4F)nn(C)c3n1)CCO2 [Compound 18.41, 2,6-Difluoro-3-(1-methyl-6-(9-methyl-1-oxa-4,9-diazaspiro[5.5]undecan-4-y1)-1H-pyrazolo[3,4-d]pyrimidin-3-y1)-5-(trifluoromethyl)phenol]
< 100 nM	CCC1COCCN1c1cc2c(cn1)c(-c1cc(C(F)(F)F)c(F)c(O)c1F)nn2C (stereo not shown) [Compound 9.45, 3-(6-(3-Ethylmorpholino)-1-methyl-1H-pyrazolo[4,3-c]pyridin-3-yl)-2,6-difluoro-5-(trifluoromethyl)phenol]
< 100 nM	Cn1nc(-c2cc(C(F)(F)F)c(F)c(O)c2F)c2cnc(N3CCOC4(CCOCC4)C3)nc21 [Compound 18.95, 2,6-Difluoro-3-(1-methyl-6-(1,9-dioxa-4-azaspiro[5.5]undecan-4-y1)-1H-pyrazolo[3,4-d]pyrimidin-3-y1)-5-(trifluoromethyl)phenol]
